Our source for the relative viability values is the supplement of paper PMC10307832.

SMILES strings stand for the structures.

The first experiment relates to ChaGo-K-1. In words: relative viability (nuclei count vs DMSO), 5 days (fraction); higher = more cells survive. As to conditions: first compound 0.08 µM. A digest of the protocol: (§1)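 Nuclei were stained with Hoechst during a one-step fixation (final 0.05% Triton X-100, 1% formaldehyde, 1 ug/ml Hoechst) carried out 5 days after dosing, then counted on 4× images. The cells, lung cancer lines in 1536-well plates, had been dosed by pin tool the day after seeding with one drug alone or a fixed anchor-drug dose plus five library-drug doses (not always all listed) in √10 steps. Relative viability is the nuclei count in treated wells divided by that in vehicle wells, and each value is the median of duplicate plates.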
On to `CCCCCCCCCCCC1=C(O)C(=O)C=C(O)C1=O` [Embelin] + Cc1nc(Nc2ncc(C(=O)Nc3c(C)cccc3Cl)s2)cc(N2CCN(CCO)CC2)n1 [Dasatinib] (partner 0.075 µM), for which the relative viability came to 0.501.

Turning to `CCCCCCCCCCCC1=C(O)C(=O)C=C(O)C1=O` [Embelin] + NC(=O)Nc1cc(-c2cccc(F)c2)sc1C(=O)N[C@H]1CCCNC1 [AZD7762] (partner 0.2 µM), the relative viability came out at 0.861.

Regarding `CCCCCCCCCCCC1=C(O)C(=O)C=C(O)C1=O` [Embelin] + CC(=O)c1c(C)c2cnc(Nc3ccc(N4CCNCC4)cn3)nc2n(C2CCCC2)c1=O [Palbociclib] (partner 0.5 µM), the relative viability was found to be 0.911.

Still in this experiment, the particulars now being: first compound 0.8 µM.
Consider `CCCCCCCCCCCC1=C(O)C(=O)C=C(O)C1=O` [Embelin] + N=C(N)NC(=N)NCCc1ccccc1 [Phenformin] (partner 250 µM), for which the relative viability was found to be 0.503.

On to `CCCCCCCCCCCC1=C(O)C(=O)C=C(O)C1=O` [Embelin] + CCNC(=O)c1noc(-c2cc(C(C)C)c(O)cc2O)c1-c1ccc(CN2CCOCC2)cc1 [Luminespib] (partner 0.01 µM), for which the relative viability was 0.755.

Compound `CCCCCCCCCCCC1=C(O)C(=O)C=C(O)C1=O` [Embelin] + Cc1nc(Nc2ncc(C(=O)Nc3c(C)cccc3Cl)s2)cc(N2CCN(CCO)CC2)n1 [Dasatinib] (partner 0.075 µM) came in with a relative viability of 0.576.

In turn, `CCCCCCCCCCCC1=C(O)C(=O)C=C(O)C1=O` [Embelin] + NC(=O)Nc1cc(-c2cccc(F)c2)sc1C(=O)N[C@H]1CCCNC1 [AZD7762] (partner 0.2 µM) came in with a relative viability of 0.922.

For `CCCCCCCCCCCC1=C(O)C(=O)C=C(O)C1=O` [Embelin] + CC(=O)c1c(C)c2cnc(Nc3ccc(N4CCNCC4)cn3)nc2n(C2CCCC2)c1=O [Palbociclib] (partner 0.5 µM), the relative viability was found to be 1.01.

The same experiment, now with this note: first compound 2.53 µM.
For the compound `CCCCCCCCCCCC1=C(O)C(=O)C=C(O)C1=O` [Embelin] + N=C(N)NC(=N)NCCc1ccccc1 [Phenformin] (partner 250 µM), the relative viability came out at 0.586.

The compound `CCCCCCCCCCCC1=C(O)C(=O)C=C(O)C1=O` [Embelin] + CCNC(=O)c1noc(-c2cc(C(C)C)c(O)cc2O)c1-c1ccc(CN2CCOCC2)cc1 [Luminespib] (partner 0.01 µM) showed a relative viability of 0.776.

With `CCCCCCCCCCCC1=C(O)C(=O)C=C(O)C1=O` [Embelin] + Cc1nc(Nc2ncc(C(=O)Nc3c(C)cccc3Cl)s2)cc(N2CCN(CCO)CC2)n1 [Dasatinib] (partner 0.075 µM), the relative viability turned out to be 0.585.

The compound `CCCCCCCCCCCC1=C(O)C(=O)C=C(O)C1=O` [Embelin] + NC(=O)Nc1cc(-c2cccc(F)c2)sc1C(=O)N[C@H]1CCCNC1 [AZD7762] (partner 0.2 µM) had a relative viability of 0.922.

Consider `CCCCCCCCCCCC1=C(O)C(=O)C=C(O)C1=O` [Embelin] + CC(=O)c1c(C)c2cnc(Nc3ccc(N4CCNCC4)cn3)nc2n(C2CCCC2)c1=O [Palbociclib] (partner 0.5 µM), for which the relative viability came out at 1.01.

The same experiment, now with this note: first compound 8 µM.
`CCCCCCCCCCCC1=C(O)C(=O)C=C(O)C1=O` [Embelin] + N=C(N)NC(=N)NCCc1ccccc1 [Phenformin] (partner 250 µM) registered a relative viability of 0.482.

`CCCCCCCCCCCC1=C(O)C(=O)C=C(O)C1=O` [Embelin] + CCNC(=O)c1noc(-c2cc(C(C)C)c(O)cc2O)c1-c1ccc(CN2CCOCC2)cc1 [Luminespib] (partner 0.01 µM): the relative viability was 0.587.

As to `CCCCCCCCCCCC1=C(O)C(=O)C=C(O)C1=O` [Embelin] + Cc1nc(Nc2ncc(C(=O)Nc3c(C)cccc3Cl)s2)cc(N2CCN(CCO)CC2)n1 [Dasatinib] (partner 0.075 µM), the relative viability was 0.582.

Regarding `CCCCCCCCCCCC1=C(O)C(=O)C=C(O)C1=O` [Embelin] + NC(=O)Nc1cc(-c2cccc(F)c2)sc1C(=O)N[C@H]1CCCNC1 [AZD7762] (partner 0.2 µM), the relative viability came to 0.874.

Take `CCCCCCCCCCCC1=C(O)C(=O)C=C(O)C1=O` [Embelin] + CC(=O)c1c(C)c2cnc(Nc3ccc(N4CCNCC4)cn3)nc2n(C2CCCC2)c1=O [Palbociclib] (partner 0.5 µM): the relative viability was 0.981.

Another experiment concerns HCC-78. Described as above. As to conditions: first compound 0.08 µM. A digest of the protocol:
as §1
Compound `CCCCCCCCCCCC1=C(O)C(=O)C=C(O)C1=O` [Embelin] + N=C(N)NC(=N)NCCc1ccccc1 [Phenformin] (partner 250 µM) yielded a relative viability of 0.661.

`CCCCCCCCCCCC1=C(O)C(=O)C=C(O)C1=O` [Embelin] + Cc1nc(Nc2ncc(C(=O)Nc3c(C)cccc3Cl)s2)cc(N2CCN(CCO)CC2)n1 [Dasatinib] (partner 0.075 µM) showed a relative viability of 0.373.

For `CCCCCCCCCCCC1=C(O)C(=O)C=C(O)C1=O` [Embelin] + NC(=O)Nc1cc(-c2cccc(F)c2)sc1C(=O)N[C@H]1CCCNC1 [AZD7762] (partner 0.2 µM), the relative viability was determined as 0.555.

For the compound `CCCCCCCCCCCC1=C(O)C(=O)C=C(O)C1=O` [Embelin] + CC(=O)c1c(C)c2cnc(Nc3ccc(N4CCNCC4)cn3)nc2n(C2CCCC2)c1=O [Palbociclib] (partner 0.5 µM), the relative viability was 0.514.

Staying with this experiment, now noted: first compound 0.8 µM.
Turning to `CCCCCCCCCCCC1=C(O)C(=O)C=C(O)C1=O` [Embelin] + N=C(N)NC(=N)NCCc1ccccc1 [Phenformin] (partner 250 µM), the relative viability came to 0.729.

In turn, `CCCCCCCCCCCC1=C(O)C(=O)C=C(O)C1=O` [Embelin] + Cc1nc(Nc2ncc(C(=O)Nc3c(C)cccc3Cl)s2)cc(N2CCN(CCO)CC2)n1 [Dasatinib] (partner 0.075 µM) had a relative viability of 0.44.

Turning to `CCCCCCCCCCCC1=C(O)C(=O)C=C(O)C1=O` [Embelin] + NC(=O)Nc1cc(-c2cccc(F)c2)sc1C(=O)N[C@H]1CCCNC1 [AZD7762] (partner 0.2 µM), the relative viability is 0.773.

Consider `CCCCCCCCCCCC1=C(O)C(=O)C=C(O)C1=O` [Embelin] + CC(=O)c1c(C)c2cnc(Nc3ccc(N4CCNCC4)cn3)nc2n(C2CCCC2)c1=O [Palbociclib] (partner 0.5 µM), for which the relative viability was found to be 0.446.

Still in this experiment, the particulars now being: first compound 2.53 µM.
As for `CCCCCCCCCCCC1=C(O)C(=O)C=C(O)C1=O` [Embelin] + N=C(N)NC(=N)NCCc1ccccc1 [Phenformin] (partner 250 µM), the relative viability was determined as 0.761.
